Measurements from US8435980B2 (AbbVie Inc., priority 2009, dated 2013).

target: T1, Cdc7 (BEV coexpressed huCDC7/DBF4) (Homo sapiens, UniProt O00311); test: Cdc7 enzyme inhibition assay ([33P]ATP, biotinylated peptide substrate, FlashPlate); format: biochemical; conditions: not given
T1 construct: made in house; host or cells: BEV (baculovirus expression vector) co-expression; insect cells are implied but no cell line is named
Protocol: Cdc7 (BEV coexpressed huCDC7/DBF4) is prepared internally. Cdc7 assays are conducted as follows with final concentrations as listed. […] Reactions are quenched after 1 hr by the addition of 90 μL stop buffer (50 mM EDTA, 2M NaCl). […] (Ki) for exemplary compounds.

T1 sequence (O00311 whole entry): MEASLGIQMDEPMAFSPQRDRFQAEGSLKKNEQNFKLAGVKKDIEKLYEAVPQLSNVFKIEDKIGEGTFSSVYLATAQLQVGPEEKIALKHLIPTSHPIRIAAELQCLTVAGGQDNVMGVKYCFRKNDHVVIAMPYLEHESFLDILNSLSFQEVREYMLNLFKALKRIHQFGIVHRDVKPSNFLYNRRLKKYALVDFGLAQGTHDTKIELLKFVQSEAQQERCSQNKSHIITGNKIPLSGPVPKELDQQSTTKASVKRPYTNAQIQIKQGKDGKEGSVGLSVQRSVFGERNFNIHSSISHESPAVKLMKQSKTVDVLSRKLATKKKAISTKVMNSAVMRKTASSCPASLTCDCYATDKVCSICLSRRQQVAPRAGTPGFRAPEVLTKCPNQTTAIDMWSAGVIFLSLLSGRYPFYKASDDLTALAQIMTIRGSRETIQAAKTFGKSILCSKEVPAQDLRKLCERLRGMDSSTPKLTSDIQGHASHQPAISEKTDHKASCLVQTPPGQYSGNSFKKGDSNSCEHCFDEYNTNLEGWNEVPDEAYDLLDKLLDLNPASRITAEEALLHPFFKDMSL
T1 sequence (Q9UBU7 whole entry partner): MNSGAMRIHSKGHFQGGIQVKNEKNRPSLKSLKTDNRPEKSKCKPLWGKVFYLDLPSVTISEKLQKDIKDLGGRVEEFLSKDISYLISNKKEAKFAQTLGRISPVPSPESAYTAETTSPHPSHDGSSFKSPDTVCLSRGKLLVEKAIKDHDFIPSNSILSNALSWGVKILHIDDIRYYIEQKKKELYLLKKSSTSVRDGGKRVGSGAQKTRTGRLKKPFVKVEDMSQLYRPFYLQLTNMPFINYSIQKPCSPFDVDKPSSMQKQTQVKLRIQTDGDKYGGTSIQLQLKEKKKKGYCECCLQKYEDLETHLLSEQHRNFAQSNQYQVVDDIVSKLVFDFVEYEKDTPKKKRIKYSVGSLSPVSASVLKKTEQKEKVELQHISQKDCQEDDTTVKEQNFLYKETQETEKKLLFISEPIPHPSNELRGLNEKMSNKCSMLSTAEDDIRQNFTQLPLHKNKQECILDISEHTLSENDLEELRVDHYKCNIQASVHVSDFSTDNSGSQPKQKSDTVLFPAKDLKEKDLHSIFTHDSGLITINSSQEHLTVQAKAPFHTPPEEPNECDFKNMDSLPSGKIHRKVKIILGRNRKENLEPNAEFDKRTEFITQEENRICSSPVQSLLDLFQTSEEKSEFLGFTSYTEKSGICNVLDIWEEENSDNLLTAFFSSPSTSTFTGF

SMILES | Ki [nM]
CC(C)(O)CNc1cc(-c2c[nH]c3ncccc23)cc(Cl)n1 [Example 18, 1-{[6-chloro-4-(1H-pyrrolo[2,3-b]pyridin-3-yl)pyridin-2-yl]amino}-2-methylpropan-2-ol] | < 10
OC1CCCC(Nc2cc(-c3c[nH]c4ncccc34)cc(Cl)n2)C1 (stereo not shown) [Example 26, 3-{[6-chloro-4-(1H-pyrrolo[2,3-b]pyridin-3-yl)pyridin-2-yl]amino}cyclohexanol] | < 10
COCCN(CCOC)c1cc(-c2c[nH]c3ncccc23)cc(Cl)n1 [Example 12, 6-chloro-N,N-bis(2-methoxyethyl)-4-(1H-pyrrolo[2,3-b]pyridin-3-yl)pyridin-2-amine] | 10 to 100
Cc1cccc(CNc2cc(-c3c[nH]c4ncccc34)cc(Cl)n2)c1C [Example 30, 6-chloro-N-(2,3-dimethylbenzyl)-4-(1H-pyrrolo[2,3-b]pyridin-3-yl)pyridin-2-amine] | 10 to 100
O[C@H]1CC[C@H](Nc2cc(-c3c[nH]c4ncccc34)cc(Cl)n2)CC1 [Example 14, Trans 4-{[6-chloro-4-(1H-pyrrolo[2,3-b]pyridin-3-yl)pyridin-2-yl]amino}cyclohexanol] | < 10
COCCNc1cc(-c2c[nH]c3ncccc23)cc(Cl)n1 [Example 10, 6-chloro-N-(2-methoxyethyl)-4-(1H-pyrrolo[2,3-b]pyridin-3-yl)pyridin-2-amine] | < 10

same assay, conditions: Table 3; enzyme inhibition data (Ki)

SMILES | Ki [nM]
COc1cc(Nc2cc(-c3c[nH]c4ncccc34)cc(Cl)n2)cc(OC)c1OC [Example 412, 6-chloro-4-(1H-pyrrolo[2,3-b]pyridin-3-yl)-N-(3,4,5-trimethoxyphenyl)pyridin-2-amine] | < 10
COc1cnc2[nH]cc(-c3cc(Cl)nc(N[C@H]4CC[C@H](NC(=O)C(C)C)CC4)c3)c2c1 [Example 228, N-(trans-4-{[6-chloro-4-(5-methoxy-1H-pyrrolo[2,3-b]pyridin-3-yl)pyridin-2-yl]amino}cyclohexyl)-2-methylpropanamide] | < 10
Oc1ccc(CNc2nc(Cl)cc(-c3c[nH]c4ncccc34)n2)cc1 [Example 458, 4-({[4-chloro-6-(1H-pyrrolo[2,3-b]pyridin-3-yl)pyrimidin-2-yl]amino}methyl)phenol] | < 10
CC(=O)Nc1cnc2[nH]cc(-c3cc(Cl)nc(NC4CCCCC4)c3)c2c1 [Example 226, N-{3-[2-chloro-6-(cyclohexylamino)pyridin-4-yl]-1H-pyrrolo[2,3-b]pyridin-5-yl}acetamide] | < 10
O=C(NC1CCCC(Nc2cc(-c3c[nH]c4ncccc34)cc(Cl)n2)C1)C1CCCCN1 (stereo not shown) [Example 129, N-(3-{[6-chloro-4-(1H-pyrrolo[2,3-b]pyridin-3-yl)pyridin-2-yl]amino}cyclohexyl)piperidine-2-carboxamide] | < 10
CC(C)(C)OC(=O)N1CCC1C(=O)NC1CCCC(Nc2cc(-c3c[nH]c4ncccc34)cc(Cl)n2)C1 (stereo not shown) [Example 296, tert-butyl 2-[(3-{[6-chloro-4-(1H-pyrrolo[2,3-b]pyridin-3-yl)pyridin-2-yl]amino}cyclohexyl)carbamoyl]azetidine-1-carboxylate] | < 10
O=C(Nc1ccccc1)NC1CCC(Nc2cc(-c3c[nH]c4ncccc34)cc(Cl)n2)CC1 (stereo not shown) [Example 66, 1-(4-{[6-chloro-4-(1H-pyrrolo[2,3-b]pyridin-3-yl)pyridin-2-yl]amino}cyclohexyl)-3-phenylurea] | < 10
CNC(=O)N[C@H]1CC[C@H](Nc2cc(-c3c[nH]c4ncccc34)cc(Cl)n2)CC1 [Example 99, 1-(trans-4-{[6-chloro-4-(1H-pyrrolo[2,3-b]pyridin-3-yl)pyridin-2-yl]amino}cyclohexyl)-3-methylurea] | < 10
OC(CNc1cc(-c2c[nH]c3ncccc23)cc(Cl)n1)c1ccccc1 (stereo not shown) [Example 415, 2-{[6-chloro-4-(1H-pyrrolo[2,3-b]pyridin-3-yl)pyridin-2-yl]amino}-1-phenylethanol] | < 10
O=C(CN1CCCCC1)Nc1cc(-c2c[nH]c3ncccc23)cc(Cl)n1 [Example 360, N-[6-chloro-4-(1H-pyrrolo[2,3-b]pyridin-3-yl)pyridin-2-yl]-2-(piperidin-1-yl)acetamide] | < 10
COc1cnc2[nH]cc(-c3cc(Cl)nc(N[C@H]4CC[C@H](NS(C)(=O)=O)CC4)c3)c2c1 [Example 220, N-(trans-4-{[6-chloro-4-(5-methoxy-1H-pyrrolo[2,3-b]pyridin-3-yl)pyridin-2-yl]amino}cyclohexyl)methanesulfonamide] | < 10
O=C(NCCS(=O)(=O)N[C@H]1CC[C@H](Nc2cc(-c3c[nH]c4ncccc34)cc(Cl)n2)CC1)c1ccc(F)cc1F [Example 393, N-{2-[(trans-4-{[6-chloro-4-(1H-pyrrolo[2,3-b]pyridin-3-yl)pyridin-2-yl]amino}cyclohexyl)sulfamoyl]ethyl}-2,4-difluorobenzamide] | < 10
COc1cnc2[nH]cc(-c3cc(Cl)nc(NC4CCCC(NC(C)=O)C4)c3)c2c1 (stereo not shown) [Example 261, N-(3-{[6-chloro-4-(5-methoxy-1H-pyrrolo[2,3-b]pyridin-3-yl)pyridin-2-yl]amino}cyclohexyl)acetamide] | < 10
Nc1cnc2[nH]cc(-c3cc(Cl)nc(NC4CCCCC4)c3)c2c1 [Example 225, 3-[2-chloro-6-(cyclohexylamino)pyridin-4-yl]-1H-pyrrolo[2,3-b]pyridin-5-amine] | < 10
COc1ccc(CNc2cc(-c3c[nH]c4ncccc34)cc(Cl)n2)cc1OC [Example 386] | 10 to 100
N[C@H]1CCCC[C@H]1Nc1cc(-c2c[nH]c3ncccc23)cc(Cl)n1 (relative stereo) [Example 131, (cis)-N-[6-chloro-4-(1H-pyrrolo[2,3-b]pyridin-3-yl)pyridin-2-yl]cyclohexane-1,2-diamine] | < 10

SMILES | Ki [nM]
O=C(N[C@H]1CC[C@H](Nc2cc(-c3c[nH]c4ncccc34)cc(Cl)n2)CC1)C1CN(Cc2ccc(F)cc2)C1 [Example 166, N-(trans-4-{[6-chloro-4-(1H-pyrrolo[2,3-b]pyridin-3-yl)pyridin-2-yl]amino}cyclohexyl)-1-(4-fluorobenzyl)azetidine-3-carboxamide] | < 10
Clc1cc(-c2c[nH]c3ncccc23)cc(Nc2cccc3c2CCCC3)n1 [Example 439, 6-chloro-4-(1H-pyrrolo[2,3-b]pyridin-3-yl)-N-(5,6,7,8-tetrahydronaphthalen-1-yl)pyridin-2-amine] | < 10
O=C1NCCN1C(=O)N[C@H]1CC[C@H](Nc2nc(Cl)cc(-c3c[nH]c4ncccc34)n2)CC1 [Example 473, N-(trans-4-{[4-chloro-6-(1H-pyrrolo[2,3-b]pyridin-3-yl)pyrimidin-2-yl]amino}cyclohexyl)-2-oxoimidazolidine-1-carboxamide] | < 10
CCCCC(=O)Nc1cc(-c2c[nH]c3ncccc23)cc(Cl)n1 [Example 84, N-[6-chloro-4-(1H-pyrrolo[2,3-b]pyridin-3-yl)pyridin-2-yl]pentanamide] | < 10
Clc1cc(-c2c[nH]c3ncccc23)cc(NCc2nc3ccccc3[nH]2)n1 [Example 409, N-(1H-benzimidazol-2-ylmethyl)-6-chloro-4-(1H-pyrrolo[2,3-b]pyridin-3-yl)pyridin-2-amine] | < 10
Clc1cc(-c2c[nH]c3ncccc23)cc(N[C@H]2CC[C@H](NC3CCCC3)CC2)n1 [Example 321, trans-N-[6-chloro-4-(1H-pyrrolo[2,3-b]pyridin-3-yl)pyridin-2-yl]-N′-cyclopentylcyclohexane-1,4-diamine] | < 10
O=C(N[C@H]1CC[C@H](Nc2cc(-c3c[nH]c4ncccc34)cc(Cl)n2)CC1)[C@@H]1CCN1 [Example 106, (2S)—N-(trans-4-{[6-chloro-4-(1H-pyrrolo[2,3-b]pyridin-3-yl)pyridin-2-yl]amino}cyclohexyl)azetidine-2-carboxamide] | < 10
Oc1ccc(CCNc2cc(-c3c[nH]c4ncccc34)cc(Cl)n2)cc1 [Example 398, 4-(2-{[6-chloro-4-(1H-pyrrolo[2,3-b]pyridin-3-yl)pyridin-2-yl]amino}ethyl)phenol] | < 10
Clc1cc(-c2c[nH]c3ncccc23)cc(NCC2CCCN(Cc3cccnc3)C2)n1 (stereo not shown) [Example 96, 6-chloro-N-{[1-(pyridin-3-ylmethyl)piperidin-3-yl]methyl}-4-(1H-pyrrolo[2,3-b]pyridin-3-yl)pyridin-2-amine] | < 10
COc1cnc2[nH]cc(-c3cc(Cl)nc(NC4CCCC(NC(=O)CN5CCCC5)C4)c3)c2c1 (stereo not shown) [Example 263, N-(3-{[6-chloro-4-(5-methoxy-1H-pyrrolo[2,3-b]pyridin-3-yl)pyridin-2-yl]-amino}cyclohexyl)-2-(pyrrolidin-1-yl)acetamide] | < 10
Oc1cccc(CCNc2cc(-c3c[nH]c4ncccc34)cc(Cl)n2)c1 [Example 57, 3-(2-{[6-chloro-4-(1H-pyrrolo[2,3-b]pyridin-3-yl)pyridin-2-yl]amino}ethyl)phenol] | < 10
CS(=O)(=O)N1CCC(C2CCC(Nc3cc(-c4c[nH]c5ncccc45)cc(Cl)n3)CC2)CC1 (stereo not shown) [Example 183, 6-chloro-N-{4-[1-(methylsulfonyl)piperidin-4-yl]cyclohexyl}-4-(1H-pyrrolo[2,3-b]pyridin-3-yl)pyridin-2-amine] | < 10
Clc1cc(-c2c[nH]c3ncccc23)cc(NCc2ccc3[nH]ccc3c2)n1 [Example 410, 6-chloro-N-(1H-indol-5-ylmethyl)-4-(1H-pyrrolo[2,3-b]pyridin-3-yl)pyridin-2-amine] | < 10
O=C(CN[C@H]1CC[C@H](O)CC1)N[C@H]1CC[C@H](Nc2cc(-c3c[nH]c4ncccc34)cc(Cl)n2)CC1 [Example 152, N-(trans-4-{[6-chloro-4-(1H-pyrrolo[2,3-b]pyridin-3-yl)pyridin-2-yl]amino}cyclohexyl)-N^2-(trans-4-hydroxycyclohexyl)glycinamide] | < 10
O=C(CNC1CCCC1)N[C@H]1CC[C@H](Nc2cc(-c3c[nH]c4ncccc34)cc(Cl)n2)CC1 [Example 137, N-(trans-4-{[6-chloro-4-(1H-pyrrolo[2,3-b]pyridin-3-yl)pyridin-2-yl]amino}cyclohexyl)-N^2-cyclopentylglycinamide] | < 10
